The values below are quoted from earlier work in US20060039891A1, “Antineoplastic-dendritic polymer drug delivery system” (priority 2001, published 2006).

In one series the test system is B16F10 S.C. tumor. The settings on record: at maximum tolerated dose via I.V. administration.
The conditions of series [1]: I.V. administration.

Regarding `N.N.[Cl][Pt][Cl]` [cisplatin, cis-diamminedichloro platinate (II)], the “response of B16F10 tumor models” value in the series on B16F10 S.C. tumor is listed as “resistant”. Also, in series [1], the maximum tolerated dose entry is “about 1 mg/kg”.
